# Patent publication US8614252B2, “Crystalline solid rasagiline base” (Teva Pharmaceutical Industries Ltd., priority 2006, dated 2013)
# Assays:
# [1] = pH 11
# [2] = alcohols, acetone, ethyl acetate, toluene, diethyl ether, dioxane, hexane and n-heptane
# [3] = low levels of volatiles by KF and TGA
structure (smiles),measurement,setting,value
"C#CCN[C@@H]1CCc2ccccc21 [rasagiline base, R(+)-N-propargyl-1-aminoindan]",solubility in water,[1],5500 µg/mL
same,solubility in organic solvents,[2],freely soluble
same,hygroscopicity,[3],not hygroscopic
